Measured values taken from ChEMBL document CHEMBL1152274, “Discovery of potent and selective agonists for the free fatty acid receptor 1 (FFA(1)/GPR40), a potential target for the treatment of type II diabetes” (J Med Chem, 2008).
Calls of active or inactive are those of the source. No cut-off for these calls is given here.

Biological target: T1, Free fatty acid receptor 1 (Homo sapiens, UniProt O14842)
Assay: Agonist activity at human FFA1 expressed in human 1321N1 cells by calcium fluorescence assay
Assay type: functional, cell-based
Conditions: read-out: EC50

T1 sequence (O14842 whole entry): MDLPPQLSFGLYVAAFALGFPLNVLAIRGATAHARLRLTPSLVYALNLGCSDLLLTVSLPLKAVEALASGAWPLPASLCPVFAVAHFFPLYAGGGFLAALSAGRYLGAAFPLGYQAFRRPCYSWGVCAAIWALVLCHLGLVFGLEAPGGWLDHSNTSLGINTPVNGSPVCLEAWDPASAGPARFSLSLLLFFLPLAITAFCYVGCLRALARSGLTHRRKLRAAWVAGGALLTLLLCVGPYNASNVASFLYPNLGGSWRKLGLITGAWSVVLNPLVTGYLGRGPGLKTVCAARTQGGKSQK

| EC50 [µM] | SMILES |
| --- | --- |
| 0.032 | Cc1ccccc1C#Cc1ccc(CCC(=O)O)cc1 |
| 0.096 | O=C(O)CCc1ccc(C#Cc2ccccc2)cc1 |

Same assay, conditions: read-out: pEC50 (converted)

| EC50 [µM] | SMILES |
| --- | --- |
| 0.0851 | O=C(O)CCc1ccc(C#Cc2cccc3ccccc23)cc1 |
| 1.26 | O=C(O)COc1ccc(C#Cc2ccccc2)cc1 |
| 0.513 | Cc1cccc(C#Cc2ccc(OCC(=O)O)cc2)c1 |
| 0.107 | Cc1ccc(C#Cc2ccc(CCC(=O)O)cc2)cc1 |
| 5.62 | O=C(O)COc1ccc(C#Cc2cccc(O)c2)cc1 |
| 3.72 | Cc1ccccc1C#Cc1ccc(OCC(=O)O)cc1 |
| 0.0589 | O=C(O)CCc1ccc(C#Cc2cccc([N+](=O)[O-])c2)cc1 |

Biological target: T1, Free fatty acid receptor 1
Assay: Agonist activity at human FFA1 expressed in human 1321N1 cells up to 31.6 uM by calcium fluorescence assay
Assay type: functional, cell-based
Conditions: not given

| Activity | SMILES |
| --- | --- |
| inactive | Cc1ccc(C#Cc2ccc(OCC(=O)O)cc2)cc1 |
| inactive | O=C(O)COc1ccc(C#Cc2ccc(O)cc2)cc1 |
| inactive | O=C(O)COc1ccc(C#Cc2ccc(CO)cc2)cc1 |

Biological target: T1, Free fatty acid receptor 1
Assay: Agonist activity at human FFA1 expressed in human 1321N1 cells by calcium fluorescence assay relative to 3-(4-(benzyloxy)phenyl)propionic acid
Assay type: functional, cell-based
Conditions: not given

| Activity [%] | SMILES |
| --- | --- |
| 100 | C#Cc1cccc(C#Cc2ccc(CCC(=O)O)cc2)c1 |
| 100 | O=C(O)CCc1ccc(C#Cc2cccc3ccccc23)cc1 |
| 104 | O=C(O)COc1ccc(C#Cc2ccccc2)cc1 |
| 94 | O=Cc1cccc(C#Cc2ccc(CCC(=O)O)cc2)c1 |
| 98 | O=C(O)CCc1ccc(C#Cc2cccc(C(F)(F)F)c2)cc1 |
| 92 | N#Cc1cccc(C#Cc2ccc(CCC(=O)O)cc2)c1 |
| 105 | Cc1ccccc1C#Cc1ccc(CCC(=O)O)cc1 |
| 113 | Cc1cccc(C#Cc2ccc(OCC(=O)O)cc2)c1 |
| 108 | Cc1cccc(C#Cc2ccc(CCC(=O)O)cc2)c1C |
| 99 | Cc1ccc(C#Cc2ccc(CCC(=O)O)cc2)cc1 |
| 109 | Cc1cccc(C#Cc2ccc(CCC(=O)O)cc2)c1 |
| 101 | Cc1cc(C)cc(C#Cc2ccc(CCC(=O)O)cc2)c1 |
| 103 | O=C(O)CCc1ccc(C#Cc2cccc(CO)c2)cc1 |
| 86 | O=C(O)COc1ccc(C#Cc2cccc(O)c2)cc1 |
| 106 | O=C(O)CCc1ccc(C#Cc2ccccc2)cc1 |
| 96 | Cc1ccccc1C#Cc1ccc(OCC(=O)O)cc1 |
| 94 | O=C(O)CCc1ccc(C#Cc2cccc([N+](=O)[O-])c2)cc1 |
| 96 | Nc1cccc(C#Cc2ccc(CCC(=O)O)cc2)c1 |

Biological target: T2, Free fatty acid receptor 2 (Homo sapiens) (UniProt O15552)
T2 sequence (whole entry): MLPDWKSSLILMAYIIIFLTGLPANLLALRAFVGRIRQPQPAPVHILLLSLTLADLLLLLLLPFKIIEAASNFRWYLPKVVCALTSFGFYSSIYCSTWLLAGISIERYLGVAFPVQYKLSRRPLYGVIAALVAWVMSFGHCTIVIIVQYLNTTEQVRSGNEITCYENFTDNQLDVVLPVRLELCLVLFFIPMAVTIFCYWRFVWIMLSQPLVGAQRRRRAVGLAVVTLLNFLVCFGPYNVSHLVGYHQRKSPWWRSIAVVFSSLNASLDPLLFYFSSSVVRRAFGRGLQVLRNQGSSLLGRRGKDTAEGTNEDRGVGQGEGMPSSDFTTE
Assay: Agonist activity at FFA2
Assay type: functional
Conditions: not given

| Activity | SMILES |
| --- | --- |
| inactive | C#Cc1cccc(C#Cc2ccc(CCC(=O)O)cc2)c1 |
| inactive | O=C(O)CCc1ccc(C#Cc2cccc3ccccc23)cc1 |
| inactive | O=C(O)COc1ccc(C#Cc2ccccc2)cc1 |
| inactive | Cc1ccc(C#Cc2ccc(OCC(=O)O)cc2)cc1 |
| inactive | O=C(O)COc1ccc(C#Cc2ccc(O)cc2)cc1 |
| inactive | O=Cc1cccc(C#Cc2ccc(CCC(=O)O)cc2)c1 |
| inactive | O=C(O)COc1ccc(C#Cc2ccc(CO)cc2)cc1 |
| inactive | O=C(O)CCc1ccc(C#Cc2cccc(C(F)(F)F)c2)cc1 |
| inactive | N#Cc1cccc(C#Cc2ccc(CCC(=O)O)cc2)c1 |
| inactive | Cc1ccccc1C#Cc1ccc(CCC(=O)O)cc1 |
| inactive | Cc1cccc(C#Cc2ccc(OCC(=O)O)cc2)c1 |
| inactive | Cc1cccc(C#Cc2ccc(CCC(=O)O)cc2)c1C |
| inactive | Cc1ccc(C#Cc2ccc(CCC(=O)O)cc2)cc1 |
| inactive | Cc1cccc(C#Cc2ccc(CCC(=O)O)cc2)c1 |
| inactive | Cc1cc(C)cc(C#Cc2ccc(CCC(=O)O)cc2)c1 |
| inactive | O=C(O)CCc1ccc(C#Cc2cccc(CO)c2)cc1 |
| inactive | O=C(O)COc1ccc(C#Cc2cccc(O)c2)cc1 |
| inactive | O=C(O)CCc1ccc(C#Cc2ccccc2)cc1 |
| inactive | Cc1ccccc1C#Cc1ccc(OCC(=O)O)cc1 |
| inactive | O=C(O)CCc1ccc(C#Cc2cccc([N+](=O)[O-])c2)cc1 |
| inactive | Nc1cccc(C#Cc2ccc(CCC(=O)O)cc2)c1 |

Biological target: T3, Free fatty acid receptor 3 (Homo sapiens) (UniProt O14843)
T3 sequence (whole entry): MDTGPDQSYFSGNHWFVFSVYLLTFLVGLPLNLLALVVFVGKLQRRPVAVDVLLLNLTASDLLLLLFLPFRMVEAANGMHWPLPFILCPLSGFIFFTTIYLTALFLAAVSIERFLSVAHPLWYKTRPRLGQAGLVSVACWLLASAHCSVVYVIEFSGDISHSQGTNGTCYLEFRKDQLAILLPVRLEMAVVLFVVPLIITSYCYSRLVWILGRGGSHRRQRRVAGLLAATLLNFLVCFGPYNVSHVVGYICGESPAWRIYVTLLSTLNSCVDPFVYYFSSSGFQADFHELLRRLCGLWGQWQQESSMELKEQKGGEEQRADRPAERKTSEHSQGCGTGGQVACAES
Assay: Agonist activity at FFA3
Assay type: functional
Conditions: not given

| Activity | SMILES |
| --- | --- |
| inactive | C#Cc1cccc(C#Cc2ccc(CCC(=O)O)cc2)c1 |
| inactive | O=C(O)CCc1ccc(C#Cc2cccc3ccccc23)cc1 |
| inactive | O=C(O)COc1ccc(C#Cc2ccccc2)cc1 |
| inactive | Cc1ccc(C#Cc2ccc(OCC(=O)O)cc2)cc1 |
| inactive | O=C(O)COc1ccc(C#Cc2ccc(O)cc2)cc1 |
| inactive | O=Cc1cccc(C#Cc2ccc(CCC(=O)O)cc2)c1 |
| inactive | O=C(O)COc1ccc(C#Cc2ccc(CO)cc2)cc1 |
| inactive | O=C(O)CCc1ccc(C#Cc2cccc(C(F)(F)F)c2)cc1 |
| inactive | N#Cc1cccc(C#Cc2ccc(CCC(=O)O)cc2)c1 |
| inactive | Cc1ccccc1C#Cc1ccc(CCC(=O)O)cc1 |
| inactive | Cc1cccc(C#Cc2ccc(OCC(=O)O)cc2)c1 |
| inactive | Cc1cccc(C#Cc2ccc(CCC(=O)O)cc2)c1C |
| inactive | Cc1ccc(C#Cc2ccc(CCC(=O)O)cc2)cc1 |
| inactive | Cc1cccc(C#Cc2ccc(CCC(=O)O)cc2)c1 |
| inactive | Cc1cc(C)cc(C#Cc2ccc(CCC(=O)O)cc2)c1 |
| inactive | O=C(O)CCc1ccc(C#Cc2cccc(CO)c2)cc1 |
| inactive | O=C(O)COc1ccc(C#Cc2cccc(O)c2)cc1 |
| inactive | O=C(O)CCc1ccc(C#Cc2ccccc2)cc1 |
| inactive | Cc1ccccc1C#Cc1ccc(OCC(=O)O)cc1 |
| inactive | O=C(O)CCc1ccc(C#Cc2cccc([N+](=O)[O-])c2)cc1 |
| inactive | Nc1cccc(C#Cc2ccc(CCC(=O)O)cc2)c1 |

Tested on: INS-1E
Assay: Enhancement of glucose-stimulated insulin secretion in rat INS-1E cells at 3 uM
Assay type: functional, cell-based
Conditions: not given

| SMILES | Activity |
| --- | --- |
| Cc1ccccc1C#Cc1ccc(CCC(=O)O)cc1 | Active |

Tested on: INS-1E
Assay: Enhancement of insulin secretion in rat INS-1E cells in presence of 12 mM glucose
Assay type: functional, cell-based
Conditions: not given

| SMILES | Activity |
| --- | --- |
| Cc1ccccc1C#Cc1ccc(CCC(=O)O)cc1 | Active |

Tested on: INS-1E
Assay: Enhancement of palmitate-stimulated insulin secretion in rat INS-1E cells at 10 uM
Assay type: functional, cell-based
Conditions: not given

| SMILES | Activity |
| --- | --- |
| Cc1ccccc1C#Cc1ccc(CCC(=O)O)cc1 | Active |

Tested on: INS-1E
Assay: Reduction of basal insulin secretion in rat INS-1E cells in presence of 2.8 mM glucose
Assay type: functional, cell-based
Conditions: not given

| SMILES | Activity |
| --- | --- |
| Cc1ccccc1C#Cc1ccc(CCC(=O)O)cc1 | Active |

Tested on: Pancreatic islet
Assay: Induction of glucose-stimulated insulin secretion in pancreatic islets cells isolated from wild type mouse
Assay type: functional, cell-based
Conditions: not given

| SMILES | Activity |
| --- | --- |
| Cc1ccccc1C#Cc1ccc(CCC(=O)O)cc1 | inactive |

Tested on: Pancreatic islet
Assay: Induction of glucose-stimulated insulin secretion in pancreatic islets cells isolated from FFA1-deficient mouse
Assay type: functional, cell-based
Conditions: not given

| SMILES | Activity |
| --- | --- |
| Cc1ccccc1C#Cc1ccc(CCC(=O)O)cc1 | inactive |
